“Also recorded” adds a separate entry of the source.
Legend:
FynSH3 = FynSH3 (Homo sapiens (Human), UniProt P06241); assay: Isothermal titration calorimetry, FynSH3; type: binding
Excerpt: (§1) Human Fyn-SH3 domain with GST-tag at the N-terminus and a Strep-tag II ([…]) at the C-terminus (GST-Fyn-SH3-Strep) was cloned into pPR-IBA1 vector (IBA Lifesciences) (Cochran, et al. (2014) J. Biomol. Screen. 19, 1338-1349). Codon-optimized human 4R2N Tau for E. coli expression with a Strep-tag II at the C-terminus (His-Tau-Strep) was cloned into pET-28a(+) vector (Novagen). The constructs were transformed into E. coli BL-21(DE3) competent cells (Novagen). For GST-Fyn-SH3-Strep purification, a single colony was inoculated in Luria-Bertani (LB) broth at 37° C. overnight. 10 mL cell culture was added into 500 mL LB medium and cultured at 37° C. 0.5 mM Isopropyl β-D-1-thiogalactopyranoside (IPTG) was added into the culture when OD600 reached 0.7. Cells were further cultured at 25° C. for 4 hours and harvested. Cell pellet was resuspended in lysis buffer (20 mM Tris pH 7.9, 300 mM NaCl, 1 mM TCEP) with 1 tablet of EDTA-free protease inhibitors (ThermoFisher) and 1 mg/ml lysozyme. Cells were disrupted by sonication and debris was removed by centrifugation at 9500 rpm for 1 hour. […]
(§2) Purified full-length Tau and FynSH3 were dialyzed into 20 mM Tris and 150 mM NaCl, pH 8.0 with Slide-A-Lyzer G2 Dialysis Cassettes with 10K MWCO (ThermoFisher #87729). […] Protein concentrations were measured on a Nanodrop2000 (ThermoFisher) based on absorbance at 280 nm. […]

[1] = test system: endogenous Tau-Fyn interaction; assay: Endogenous Tau-Fyn PLA in primary neurons; type: cell-based, rat; details: 3 μM and 15 μM, 24 hours
Experimental: Endogenous Tau-Fyn PL, in primary neurons: All PLA protocols were adapted from our recent study (Rush, et al. (2020) Neurobiol Dis 134, 104668).
For the endogenous Tau-Fyn PLA, neurons were grown on coverslips as described above to DIV20, then treated with compound no. 69 or vehicle, and fixed with PFA 24 hours later. Dako Tau (1:1000) and Fyn15 (1:250) antibodies were used. Duolink In Situ Fluorescence kit was used for PLA. Briefly, coverslips with fixed cells were permeabilized for 10 minutes in 0.25% Triton X-100, then blocked in 5% NGS in PBS for one hour at room temperature. Coverslips were incubated overnight at 4° C. with primary antibody in 1% NGS, then washed 3×5 minutes in PBS. Coverslips were then incubated for 1 hour at 37° C. in PLA probes (Anti-Mouse minus, Anti-Rabbit plus). […] To quantify PLA puncta, PLA fluorescence was thresholded, then ImageJ particle analyzer was run, specifying size and circularity to exclude any non-punctate signal. Quantified values were then normalized to values for vehicle-treated slides from that experiment. […]

full-length Tau = full-length Tau (Homo sapiens (Human), UniProt P10636); assay: Isothermal titration calorimetry, full-length Tau; type: binding
full-length Tau, sequence (P10636 other isoform, or with tags, fused parts or gaps): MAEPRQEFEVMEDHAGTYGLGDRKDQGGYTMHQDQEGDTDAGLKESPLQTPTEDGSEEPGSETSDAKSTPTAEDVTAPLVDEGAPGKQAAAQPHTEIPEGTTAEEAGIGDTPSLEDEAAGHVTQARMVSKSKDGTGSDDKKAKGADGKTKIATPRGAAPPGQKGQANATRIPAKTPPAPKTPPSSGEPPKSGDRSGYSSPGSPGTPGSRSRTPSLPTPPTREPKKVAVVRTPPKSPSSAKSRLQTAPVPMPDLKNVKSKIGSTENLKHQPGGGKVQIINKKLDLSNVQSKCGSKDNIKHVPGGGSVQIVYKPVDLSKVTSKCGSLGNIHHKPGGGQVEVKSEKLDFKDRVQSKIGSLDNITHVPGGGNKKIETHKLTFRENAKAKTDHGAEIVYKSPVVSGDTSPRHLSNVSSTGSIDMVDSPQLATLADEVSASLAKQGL
Excerpt: as §1, with “hour. Supernatant was loaded onto a glutathione-sepharose column (Cytiva). The column was washed in lysis buffer and protein eluted in lysis buffer containing 25 mM reduced glutathione. For His-Tau-Strep protein purification, cells were inoculated in LB broth medium and cultured at 37° C. overnight. A 10 mL overnight culture was added to 500 mL of auto-induction medium (Studier, F. W. (2005) Protein Expr Purif 41, 207-34) and cells were cultured at 37° C. for about 5 hours. The temperature was lowered to 18° C., and cells were cultured overnight. Cells were harvested and resuspended in lysis buffer with 20 mM imidazole, protease inhibitors, and lysozyme. Cells were disrupted by sonication and cell pellets were spun down at 9500 rpm for 1 hour. Supernatant was loaded onto Ni-NTA column (Cytiva) and the column was washed in lysis buffer with 20 mM imidazole. His-Tau-Strep protein was eluted in lysis buffer containing 400 mM imidazole. Both eluted GST-Fyn-SH3-Strep and His-Tau-Strep protein solutions were passed through G-25 desalting column (Cytiva) with lysis buffer and loaded onto high capacity Strep-Tactin column (IBA Lifesciences). The columns were washed in Buffer W (IBA Life sciences) and proteins were eluted in Buffer E (IBA life sciences). The eluted proteins were passed through G-25 desalting column again.” for “hour.”
as §2

Tau-FynSH3 interaction = Tau-FynSH3 interaction (Homo sapiens (Human), UniProt P10636); assay: Tau-Flag PLA, Tau-FynSH3; type: cell-based
Tau-FynSH3 interaction, sequence (P10636 other isoform, or with tags, fused parts or gaps): as above
Experimental: Tau-Flag PLA for Tau-SH3 interactions: To clone the SH3 constructs, a C-terminal Flag tag was added to the Tau construct using PCR, then the Tau sequence was replaced with the desired SH3 domain using In-Fusion HD cloning kit (Takara Bio). Next, an N-terminal GST tag was added to help expression using In-Fusion, resulting in GST-SH3-Flag plasmids. As a negative control, restriction enzymes were used to remove the FynSH3 from the FynSH3 construct, resulting in GST-Flag. All sequences were confirmed with Sanger sequencing, and expression in HEK-293 cells was verified by western blot and immunocytochemistry. Plating and experimental timeline was the same as above. Cells were transfected with 125 ng of Tau-mKate2 and 500 ng SH3 plasmid with 1.5 μL Fugene. compound no. 69 was applied to final concentration 15 μM. For Tau-SH3 PLA, we used Dako Tau (1:1000) and Flag (1:1000) primary antibodies.

FynSH3, sequence (P06241 82-143): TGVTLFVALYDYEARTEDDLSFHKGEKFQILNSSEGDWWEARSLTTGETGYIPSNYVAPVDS

O=C(CN1CCOc2ccccc21)Nc1nnc(-c2ccccn2)[nH]1 [compound no. 69]
binding to FynSH3, ITC (FynSH3): did not bind FynSH3
endogenous Tau-Fyn interaction, PLA in primary neurons [1]: inhibited endogenous Tau-Fyn interaction at both 3 μM and 15 μM; also recorded: reduces endogenous Tau-Fyn PLA
ΔG, ITC with full-length Tau (full-length Tau; 25° C.): -6.7 kcal/mol
ΔH, ITC with full-length Tau (full-length Tau; 25° C.): -1.5 kcal/mol
Kd (full-length Tau; 25° C., read-out: Kd, ITC with full-length Tau): 11.9 µM
n, ITC with full-length Tau (full-length Tau; one set of sites model): 0.9
Tau-FynSH3 interaction, Tau-Flag PLA (in words) (Tau-FynSH3 interaction; 15 μM, HEK-293 cells): inhibited
inhibition at 15 µM (Tau-FynSH3 interaction; HEK293, HEK-293 cells): 37%

From patent publication US20250367209A1 (SOUTHERN RESEARCH INSTITUTE, priority 2022, published 2025)
